Test results: patent US11478471B2, “Methods and compositions for treating diabetes, metabolic syndrome and other conditions” (priority 2005, dated 2022)
In brackets after ≈: the same amount, converted by molar mass. Entries after “also recorded” stand apart in the source; their conditions may differ. Read-outs that look alike come from different tables or passages of the source.

Tests used:
plasma corticosterone = assay: Plasma corticosterone in rats after oral dosing (ELISA); format: in vivo, Sprague Dawley rats; details: for effect on plasma corticosterone (FIG. 1): 200 mg/kg oral, vs vehicle; for Corticosteroid Levels (mean ± SEM): 4 h after gavage
Method: To generate the results shown in FIG. 1, five groups (eight per group) of rats were used. The rats were maintained on a 14/10 hour light/dark cycle and allowed free access to food and water. Each rat was dosed (200 mg drug/kg body weight) via a gastric tube. […] All of the rats were dosed between 2.00 and 3.00 pm and were sacrificed four hours later (between 6.00 and 7.00 pm). Plasma was prepared and the concentration of corticosterone determined by an enzyme linked immuno assay (ELISA). In rats, the predominant active glucocorticoid is corticosterone; in humans, the predominant active glucucorticoid is the closely related molecule cortisol.
The rats were maintained and dosed as described above. Plasma was prepared and the concentration of corticosterone in the plasma determined by ELISA.
(§1) The rats were maintained as described above; the drugs were suspended in olive oil, and each rat was dosed once via gastric tube to achieve a dose of 200 mg/kg. All of the rats were dosed at a specific time so that all terminations occurred between 6 and 7 pm. […] Following sacrifice, plasma was prepared, and the concentration of corticosterone in the plasma was determined by ELISA. In the same plasma samples, total cholesterol levels were also determined.
In the Table, corticosterone levels (mean±SEM; ng/mL) were determined four hours after oral gavage of the indicated drug (N=10/group). There was a single control group (dosed with vehicle).
Corticosterone levels (mean±SEM; ng/mL) were determined at the indicated times after oral gavage of the indicated drug at 200 mg/kg. […] The means of the vehicle treated groups are used as the time zero control point.

cholesterol levels = assay: Cholesterol levels in rats after oral dosing; format: in vivo, Sprague Dawley rats; details: single oral 200 mg/kg
Method: as §1

testosterone levels = assay: Testosterone levels in rats after oral dosing; format: in vivo, Sprague Dawley rats; details: for Testosterone levels (mean ± SEM): 4 h after gavage
Source text: There was a single control group (dosed with vehicle).
The means of the vehicle treated groups are used as the time zero control point.

Candida albicans = assay: Antifungal MIC; format: cell-based; details: read-out: MIC
Candida glabrata = assay: Antifungal MIC; format: cell-based; details: Nakaseomyces glabratus, read-out: MIC
Candida guilliermondii = assay: Antifungal MIC; format: cell-based; details: Meyerozyma guilliermondii, DSM11947; DSM strain 11947, 48 h
Candida kefyr = assay: Antifungal MIC; format: cell-based; details: Kluyveromyces marxianus, DSM11954; DSM strain 11954, 48 h
Candida parapsilosis = assay: Antifungal MIC; format: cell-based; details: Lodderomyces parapsilosis, read-out: MIC
Candida tropicalis = assay: Antifungal MIC; format: cell-based
Cryptococcus neoformans = assay: Antifungal MIC; format: cell-based
Issatchenkia orientalis = assay: Antifungal MIC; format: cell-based; details: Pichia kudriavzevii, read-out: MIC
Saccharomyces cerevisiae = assay: Antifungal MIC; format: cell-based; details: DSM01333, DSM strain 01333, 48 h
P450 2C6 = P450 2C6 (Rattus norvegicus, UniProt P05178); details: Rotstein et al. 1992; read-out: IC50, progesterone 21 hydroxylase (2C6); cited from earlier work
P450 3A = details: read-out: IC50, progesterone 6β hydroxylase (3A); Rotstein et al. 1992; cited from earlier work
[1] = test system: P450 2B1, 2B2, 1A1, 2C11, 3A; details: read-out: IC50, progesterone 16α hydroxylase (2B1, 2B2, 1A1, 2C11, 3A); Rotstein et al. 1992; cited from earlier work
P450 4A = details: read-out: IC50, lauric acid hydroxylase (4A); Rotstein et al. 1992; cited from earlier work
[2] = humans, cited from earlier work
[3] = test system: CYP7A (cholesterol 7α hydroxylase); assay: Inhibition of CYP7A, cholesterol 7α-hydroxylase activity (Rotstein et al. 1992); details: assuming intrahepatic concentration approximately 20% of total plasma concentration; listed as 2R,4S enantiomer
succinate dehydrogenase = target: T1, succinate dehydrogenase (Rattus norvegicus, UniProt Q920L2); details: read-out: in vitro IC50, succinate dehydrogenase; cited from earlier work
T1 construct: host or cells: isolated rat liver mitochondria (from the cited title)

[4] = following fifth 200 mg dose of racemic ketoconazole (every twelve hours)
[5] = following first 200 mg dose of racemic ketoconazole

P450 2C6, sequence (P05178 whole entry): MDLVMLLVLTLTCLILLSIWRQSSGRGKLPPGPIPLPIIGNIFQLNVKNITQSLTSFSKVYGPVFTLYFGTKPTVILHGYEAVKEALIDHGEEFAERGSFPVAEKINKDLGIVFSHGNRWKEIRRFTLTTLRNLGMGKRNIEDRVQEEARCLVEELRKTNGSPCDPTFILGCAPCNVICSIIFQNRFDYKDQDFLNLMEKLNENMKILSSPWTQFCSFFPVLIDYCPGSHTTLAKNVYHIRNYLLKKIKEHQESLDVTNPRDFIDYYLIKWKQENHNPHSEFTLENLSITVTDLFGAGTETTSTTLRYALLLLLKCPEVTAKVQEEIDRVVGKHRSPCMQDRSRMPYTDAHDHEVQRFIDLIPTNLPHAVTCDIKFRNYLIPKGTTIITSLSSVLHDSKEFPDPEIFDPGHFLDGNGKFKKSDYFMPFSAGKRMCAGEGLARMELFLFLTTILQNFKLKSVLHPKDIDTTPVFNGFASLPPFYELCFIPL
T1 sequence (Q920L2 35-656): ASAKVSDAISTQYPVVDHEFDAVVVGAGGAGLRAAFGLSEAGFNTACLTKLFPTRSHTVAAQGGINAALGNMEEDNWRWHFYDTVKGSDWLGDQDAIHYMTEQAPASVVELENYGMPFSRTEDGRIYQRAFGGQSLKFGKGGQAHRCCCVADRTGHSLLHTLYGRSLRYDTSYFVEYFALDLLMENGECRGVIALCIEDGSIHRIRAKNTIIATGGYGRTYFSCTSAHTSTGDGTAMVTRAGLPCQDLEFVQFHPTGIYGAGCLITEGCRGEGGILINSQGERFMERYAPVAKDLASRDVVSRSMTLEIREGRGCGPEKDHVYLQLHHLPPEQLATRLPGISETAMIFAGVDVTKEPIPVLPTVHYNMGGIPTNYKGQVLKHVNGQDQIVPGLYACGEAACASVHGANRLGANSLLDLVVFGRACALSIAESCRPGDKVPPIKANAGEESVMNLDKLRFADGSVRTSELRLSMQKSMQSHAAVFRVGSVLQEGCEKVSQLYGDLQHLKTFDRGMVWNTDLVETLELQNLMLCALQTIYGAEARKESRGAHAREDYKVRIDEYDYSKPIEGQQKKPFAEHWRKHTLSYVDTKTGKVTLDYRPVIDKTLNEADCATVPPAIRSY
T1 sequence (P21913 31-282 partner): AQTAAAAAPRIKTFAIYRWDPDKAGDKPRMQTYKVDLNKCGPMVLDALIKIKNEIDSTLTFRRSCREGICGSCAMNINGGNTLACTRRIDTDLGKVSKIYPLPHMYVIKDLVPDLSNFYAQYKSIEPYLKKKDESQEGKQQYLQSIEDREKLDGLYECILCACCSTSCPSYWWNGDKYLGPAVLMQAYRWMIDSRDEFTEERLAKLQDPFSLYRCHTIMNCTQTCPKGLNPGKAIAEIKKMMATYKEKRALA
T1 sequence (Q641Z9 30-169 partner limits assumed): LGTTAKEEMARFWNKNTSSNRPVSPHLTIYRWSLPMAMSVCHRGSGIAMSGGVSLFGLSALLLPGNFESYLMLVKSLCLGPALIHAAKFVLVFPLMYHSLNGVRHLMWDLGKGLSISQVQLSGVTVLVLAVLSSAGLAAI
T1 sequence (Q6PCT8 57-159 partner): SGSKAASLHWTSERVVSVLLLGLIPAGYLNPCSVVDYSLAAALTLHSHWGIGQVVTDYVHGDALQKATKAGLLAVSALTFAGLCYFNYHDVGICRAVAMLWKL

In the case of `CC(=O)N1CCN(c2ccc(OC[C@H]3CO[C@](Cn4ccnc4)(c4ccc(Cl)cc4Cl)O3)cc2)CC1` [2R,4S], the “effect on plasma corticosterone (FIG. 1)” value (plasma corticosterone; 4 h) is reported as “reduce corticosterone”, the “Corticosteroid Levels (mean ± SEM)” value (plasma corticosterone; single oral 50 mg/kg) is reported as 226 ± 30.1 ng/mL and the “Corticosteroid Levels (mean ± SEM)” value (plasma corticosterone; single oral 100 mg/kg) is reported as 196 ± 17.2 ng/mL. For the same compound, the “Corticosteroid Levels (mean ± SEM), time course” value (plasma corticosterone; single oral 200 mg/kg, 4 h) was 191 ± 14 ng/mL, the “Corticosteroid Levels (mean ± SEM)” value (plasma corticosterone; single oral 200 mg/kg) was 217 ± 25.8 ng/mL and the “Corticosteroid Levels (mean ± SEM), time course” value (plasma corticosterone; single oral 200 mg/kg, 8 h) was 206 ± 13 ng/mL. For the same compound, the “Corticosteroid Levels (mean ± SEM), time course” value (plasma corticosterone; single oral 200 mg/kg, 12 h) was 175 ± 9 ng/mL, the “Corticosteroid Levels (mean ± SEM), time course” value (plasma corticosterone; single oral 200 mg/kg, 16 h) was 171 ± 9 ng/mL and the “Corticosteroid Levels (mean ± SEM), time course” value (plasma corticosterone; single oral 200 mg/kg, 20 h) was 169 ± 7 ng/mL. For the same compound, the “Corticosteroid Levels (mean ± SEM), time course” value (plasma corticosterone; single oral 200 mg/kg, 24 h) was 182 ± 10 ng/mL, the “Corticosteroid Levels (mean ± SEM)” value (plasma corticosterone; single oral 400 mg/kg) was 192 ± 11.6 ng/mL and the “Corticosteroid Levels (mean ± SEM)” value (plasma corticosterone; single oral 600 mg/kg) was 167 ± 6.8 ng/mL. For the same compound, the “Cholesterol Levels (mean ± SEM)” value (cholesterol levels; 4 h) was 85.1 ± 7 mg/dL, the “Cholesterol Levels (mean ± SEM)” value (cholesterol levels; 8 h) was 85.1 ± 5.4 mg/dL and the “Cholesterol Levels (mean ± SEM)” value (cholesterol levels; 12 h) was 77.3 ± 1.9 mg/dL. The “Cholesterol Levels (mean ± SEM)” value (cholesterol levels; 16 h) was 77.3 ± 4.6 mg/dL, the “Cholesterol Levels (mean ± SEM)” value (cholesterol levels; 20 h) was 69.6 ± 2.7 mg/dL and the “Cholesterol Levels (mean ± SEM)” value (cholesterol levels; 24 h) was 69.6 ± 1.5 mg/dL. The “Testosterone levels (mean ± SEM)” value (testosterone levels; single oral 50 mg/kg) was 2.5 ± 0.5 nmol/L, the “Testosterone levels (mean ± SEM)” value (testosterone levels; single oral 100 mg/kg) was 1.3 ± 0.2 nmol/L and the “Testosterone levels (mean ± SEM), time course” value (testosterone levels; single oral 200 mg/kg, 4 h) was 3.4 ± 0.5 nmol/L. The “Testosterone levels (mean ± SEM)” value (testosterone levels; single oral 200 mg/kg) was 1.4 ± 0.4 nmol/L, the “Testosterone levels (mean ± SEM), time course” value (testosterone levels; single oral 200 mg/kg, 8 h) was 8.6 ± 2.0 nmol/L and the “Testosterone levels (mean ± SEM), time course” value (testosterone levels; single oral 200 mg/kg, 12 h) was 5.6 ± 1.1 nmol/L. For the same compound, the “Testosterone levels (mean ± SEM), time course” value (testosterone levels; single oral 200 mg/kg, 16 h) was 5.5 ± 0.9 nmol/L, the “Testosterone levels (mean ± SEM), time course” value (testosterone levels; single oral 200 mg/kg, 20 h) was 5.2 ± 1.1 nmol/L and the “Testosterone levels (mean ± SEM), time course” value (testosterone levels; single oral 200 mg/kg, 24 h) was 6.0 ± 1.0 nmol/L. For the same compound, the “Testosterone levels (mean ± SEM)” value (testosterone levels; single oral 400 mg/kg) was 0.7 ± 0.2 nmol/L, the “Testosterone levels (mean ± SEM)” value (testosterone levels; single oral 600 mg/kg) was 1.6 ± 0.3 nmol/L and the MIC (Candida albicans; DSM11225, DSM strain 11225, 48 h) was under 0.015 µg/mL. For the same compound, the MIC (Candida albicans; DSM11943, DSM strain 11943, 48 h) was under 0.015 µg/mL, the MIC (Candida albicans; DSM11944, DSM strain 11944, 48 h) was under 0.015 µg/mL and the MIC (Candida albicans; DSM11945, DSM strain 11945, 48 h) was 0.03 µg/mL (≈ 0.0565 µM). For the same compound, the MIC (Candida albicans; DSM11948, DSM strain 11948, 48 h) was under 0.015 µg/mL, the MIC (Candida albicans; DSM11949, DSM strain 11949, 48 h) was 0.25 µg/mL (≈ 0.47 µM) and the MIC (Candida albicans; strain 98-St-00799, 48 h) was under 0.015 µg/mL. The MIC (Candida glabrata; DSM11226, DSM strain 11226, 48 h) was 0.5 µg/mL (≈ 0.941 µM), the MIC (Candida glabrata; DSM11950, DSM strain 11950, 48 h) was 0.25 µg/mL (≈ 0.47 µM) and the MIC (Candida guilliermondii) was 0.25 µg/mL (≈ 0.47 µM). It also gave an MIC (Candida kefyr) of 0.03 µg/mL (≈ 0.0565 µM), an MIC (Candida parapsilosis; DSM05784, DSM strain 05784, 48 h) of 0.06 µg/mL (≈ 0.113 µM) and an MIC (Candida parapsilosis; DSM11224, DSM strain 11224, 48 h) of 0.06 µg/mL (≈ 0.113 µM). It also gave an MIC (Candida tropicalis; DSM11951, 48 h) of 0.125 µg/mL (≈ 0.235 µM), an MIC (Candida tropicalis; DSM11952, DSM strain 11952, 48 h, read-out: MIC) of 4 µg/mL (≈ 7.53 µM) and an MIC (Candida tropicalis; DSM11953, 48 h) of 0.125 µg/mL (≈ 0.235 µM). It also gave an MIC (Cryptococcus neoformans; DSM11959, DSM strain 11959, 48 h) of 0.03 µg/mL (≈ 0.0565 µM), an MIC (Cryptococcus neoformans; DSM11960, DSM strain 11960, 48 h) of 0.125 µg/mL (≈ 0.235 µM) and an MIC (Issatchenkia orientalis; DSM11956, DSM strain 11956, 48 h) of 0.5 µg/mL (≈ 0.941 µM). The MIC (Issatchenkia orientalis; DSM11958, DSM strain 11958, 48 h) was 2 µg/mL (≈ 3.76 µM), the MIC (Saccharomyces cerevisiae) was 0.25 µg/mL (≈ 0.47 µM) and the IC50 (P450 2C6) was 11.2 µM. The IC50 (P450 3A) was 0.79 µM, the IC50 [1] was 69 µM and the IC50 (P450 4A) was under 100 µM. The “AUC 0-12” value [2, 4] was 1543 ± 231 µg·min/mL, the Cmax [2, 4] was 4770 ± 550 ng/mL and the “T ½” value [2, 4] was 2.63 ± 0.317 h. For the same compound, the “AUC 0-12” value [2, 5] was 820 ± 142 µg·min/mL, the Cmax [2, 5] was 3400 ± 440 ng/mL and the “T ½” value [2, 5] was 1.62 ± 0.13 h. The “total plasma concentration required to inhibit intrahepatic CYP7A” value [3] was “approximately 1 microM; also recorded: approximately 0.5 microg/mL”.

With `CC(=O)N1CCN(c2ccc(OCC3COC(Cn4ccnc4)(c4ccc(Cl)cc4Cl)O3)cc2)CC1` (stereo not drawn) [2S45] the “effect on plasma corticosterone (FIG. 1)” value (plasma corticosterone; 4 h) was “little effect”.

In the case of `Clc1ccc(C2(Cn3ccnc3)OCC(COc3ccc(N4CCNCC4)cc3)O2)c(Cl)c1` (stereo not drawn) [DAK, deacetylated ketoconazole], the IC50 (succinate dehydrogenase) is given as 350 µM.
